According to US20220306640A1, “HYDANTOIN DERIVATIVE” (ONO PHARMACEUTICAL CO., LTD., priority 2019, published 2022):

Target: T1, DDR1 phosphorylation in T-47D (ATCC, HTB-133) cells (Homo sapiens, UniProt Q08345)
T1 construct: host or cells: T-47D
Assay: Measurement of DDR1 phosphorylation suppression rate by using T-47D cells (p-DDR1 ELISA)
Assay type: cell-based
Settings: collagen Type I 10 μg/ml, p-DDR1 (panTyr) ELISA
How it was run: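 T-47D cells were pre-treated with compound 24 h in RPMI/0.1% BSA (0.1% DMSO, 6-point 10-fold series), then stimulated with rat tail collagen I (10 μg/ml) for 24 h at 37 °C. Lysate p-DDR1 (panTyr) was read by ELISA; IC50 derived from % inhibition versus collagen and no-collagen controls.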

T1 sequence (Q08345 19-913): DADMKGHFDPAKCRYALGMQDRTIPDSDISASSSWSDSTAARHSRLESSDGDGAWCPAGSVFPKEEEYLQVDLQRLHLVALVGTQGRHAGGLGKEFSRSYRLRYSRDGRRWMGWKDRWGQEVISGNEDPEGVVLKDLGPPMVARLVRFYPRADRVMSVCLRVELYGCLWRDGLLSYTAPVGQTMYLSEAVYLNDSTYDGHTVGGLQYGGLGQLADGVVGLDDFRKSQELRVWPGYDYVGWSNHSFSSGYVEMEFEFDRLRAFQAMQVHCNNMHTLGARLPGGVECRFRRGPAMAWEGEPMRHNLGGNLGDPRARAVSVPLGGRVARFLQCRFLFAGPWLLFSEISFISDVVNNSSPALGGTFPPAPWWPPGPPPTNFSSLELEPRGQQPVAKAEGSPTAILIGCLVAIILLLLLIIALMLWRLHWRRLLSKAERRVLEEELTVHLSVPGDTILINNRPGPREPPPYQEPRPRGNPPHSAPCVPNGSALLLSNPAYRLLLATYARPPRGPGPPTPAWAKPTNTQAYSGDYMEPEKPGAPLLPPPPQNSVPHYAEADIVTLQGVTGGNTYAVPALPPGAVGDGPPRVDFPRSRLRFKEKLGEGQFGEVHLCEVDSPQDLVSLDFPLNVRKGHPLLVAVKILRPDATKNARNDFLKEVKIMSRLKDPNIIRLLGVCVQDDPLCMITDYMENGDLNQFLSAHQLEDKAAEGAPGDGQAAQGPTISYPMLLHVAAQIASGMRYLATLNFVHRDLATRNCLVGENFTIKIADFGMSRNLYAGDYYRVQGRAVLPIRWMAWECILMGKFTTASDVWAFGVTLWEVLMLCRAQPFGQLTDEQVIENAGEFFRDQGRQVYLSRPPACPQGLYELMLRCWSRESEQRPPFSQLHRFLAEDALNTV

IC50: 1 nM
Structure (SMILES): Cc1cc(Oc2ccnc(N)n2)ccc1N1C(=O)CN(c2ccc(F)c(OC(F)(F)F)c2)C1=O [Example 3(110), 3-{4-[(2-amino-4-pyrimidinyl)oxy]-2-methylphenyl}-1-[4-fluoro-3-(trifluoromethoxy)phenyl]-2,4-imidazolidinedione]
